From patent US20250250261A1, “NOVEL SUBSTITUTED FLUORINATED VINYL-N-PROPYL-PYRROLIDINE COMPOUNDS, PROCESSES FOR THEIR PREPARATION AND THERAPEUTIC USES THEREOF” (SANOFI, priority 2022, published 2025)

Target: T1, ERα (Homo sapiens, UniProt P03372)
T1 construct: host or cells: MCF7
T1 sequence (P03372 1-595): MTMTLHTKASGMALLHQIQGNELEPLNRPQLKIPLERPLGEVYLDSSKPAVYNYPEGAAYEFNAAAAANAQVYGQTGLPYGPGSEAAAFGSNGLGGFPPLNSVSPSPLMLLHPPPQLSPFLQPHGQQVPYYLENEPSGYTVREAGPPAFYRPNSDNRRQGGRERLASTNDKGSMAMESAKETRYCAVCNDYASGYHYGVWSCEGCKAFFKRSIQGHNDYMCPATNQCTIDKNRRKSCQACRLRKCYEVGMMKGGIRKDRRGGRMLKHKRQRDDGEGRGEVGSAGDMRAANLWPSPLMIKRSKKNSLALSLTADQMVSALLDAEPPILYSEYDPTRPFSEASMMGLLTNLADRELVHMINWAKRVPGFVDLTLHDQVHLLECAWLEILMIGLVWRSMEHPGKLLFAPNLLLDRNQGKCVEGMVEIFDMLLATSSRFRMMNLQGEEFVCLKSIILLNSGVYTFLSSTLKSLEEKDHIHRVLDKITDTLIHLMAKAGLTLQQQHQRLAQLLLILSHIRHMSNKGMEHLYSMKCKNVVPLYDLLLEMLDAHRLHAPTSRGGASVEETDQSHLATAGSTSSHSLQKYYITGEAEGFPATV
Assay: Estrogen receptor degradation activity: breast cancer cell ERα in cell western assay (MCF7 cells)
Format: cell-based
Settings: 4 hours, % of ERα levels decrease relative to fulvestrant (0.1 μM) and DMSO
Description: Test: Estrogen Receptor Degradation Activity
Said test involves measuring the in vitro degradation activity of the compounds of the Table 1a.
The measurements of the degradation activities were made using a breast cancer cell ERα in cell western assay as described hereunder.
MCF7 cells (ATCC) were seeded in 384 wells microplate (collagen coated) at a concentration of 10000 cells/30 μL per well in red phenol free MEM alpha medium (invitrogen) containing 5% charcoal dextran striped FBS. The following day, 9 points serial 1:5 dilution of each compound was added to the cells in 2.5 μL at final concentrations ranging from 0.3-0.0000018 μM (in table 2), or 0.1 μM for fulvestrant (using as positive control). At 4 hours post compound addition the cells were fixed by adding 25 μL of formalin (final concentration 5% formalin containing 0.1% triton) for 10 minutes at room temperature and then washed twice with PBS. Then, 50 μL of LI-COR blocking buffer containing 0.1% Triton was added to plate for 30 minutes at room temperature. LI-COR blocking buffer was removed and cells were incubated overnight at cold room with 50 μL anti-ER rabbit monoclonal antibody (Thermo scientific MA1-39540) diluted at 1:1000 in LI-COR blocking buffer containing 0.1% tween-20. Wells which were treated with blocking buffer but no antibody were used as background control. Wells were washed twice with PBS (0.1% tween-20) and incubated at 37° C. for 60 minutes in LI-COR (0.1% tween-20) containing goat anti-rabbit antibody Alexa 488 (1:1000) and Syto-64 a DNA dye (2 μM final concentration). Cells were then washed 3 times in PBS and scanned in ACUMEN explorer (TTP-Labtech). Integrated intensities in the green fluorescence and red fluorescence were measured to determine the levels of ERα and DNA respectively.
The degradation activity with respect to estrogen receptors in this test is given by the concentration which degrades 50% of the estrogen receptor (or IC50) in nM.
The % of ERα levels decrease were determined as follows: % inhibition=100*(1−(sample−fulvestrant:DMSO−fulvestrant)).

Structure (SMILES)	% Degradation At 0.3 μM [%]
Cc1cccc(C2=C(c3ccc(/C=C4/CCN(CCCF)C4)cc3)c3ccc(C(=O)O)cc3CCC2)c1C(F)(F)F [Compound 11, (Z)-9-(4-((1-(3-fluoropropyl)pyrrolidin-3-ylidene)methyl)phenyl)-8-(3-methyl-2-(trifluoromethyl)phenyl)-6,7-dihydro-5H-benzo[7]annulene-3-carboxylic acid]	93
Cl.O=C(O)c1ccc2c(c1)CCCC(c1ccc(Cl)cc1Cl)=C2c1ccc(/C=C2/CCN(CCCF)C2)cc1 [Compound 1, (Z)-8-(2,4-dichlorophenyl)-9-(4-((1-(3,3-fluoropropyl)pyrrolidin-3-ylidene)methyl)phenyl)-6,7-dihydro-5H-benzo[7]annulene-3-carboxylic acid, hydrochloride]	96
Cc1cc(F)ccc1C1=C(c2ccc(/C=C3/CCN(CCC(F)F)C3)cc2)c2ccc(C(=O)O)cc2CCC1 [Compound 15, (Z)-9-(4-((1-(3,3-difluoropropyl)pyrrolidin-3-ylidene)methyl)phenyl)-8-(4-fluoro-2-methylphenyl)-6,7-dihydro-5H-benzo[7]annulene-3-carboxylic acid]	88
Cc1cccc(C2=C(c3ccc(/C=C4/CCN(CCC(F)F)C4)cc3)c3ccc(C(=O)O)cc3CCC2)c1C(F)(F)F [Compound 12, (Z)-9-(4-((1-(3,3-difluoropropyl)pyrrolidin-3-ylidene)methyl)phenyl)-8-(3-methyl-2-(trifluoromethyl)phenyl)-6,7-dihydro-5H-benzo[7]annulene-3-carboxylic acid]	85
Cc1cc(F)ccc1C1=C(c2ccc(/C=C3/CCN(CCCF)C3)cc2)c2ccc(C(=O)O)cc2CCC1 [Compound 6, (Z)-8-(4-fluoro-2-methylphenyl)-9-(4-((1-(3-fluoropropyl)pyrrolidin-3-ylidene)methyl)phenyl)-6,7-dihydro-5H-benzo[7]annulene-3-carboxylic acid]	96
Cl.Oc1ccc2c(c1)CCCC(c1ccc(Cl)cc1Cl)=C2c1ccc(/C=C2/CCN(CCCF)C2)cc1 [Compound 16, (Z)-8-(2,4-dichlorophenyl)-9-(4-((1-(3-fluoropropyl)pyrrolidin-3-ylidene)methyl)phenyl)-6,7-dihydro-5H-benzo[7]annulen-3-ol hydrochloride]	76
Cc1cc(F)cc(C)c1C1=C(c2ccc(/C=C3/CCN(CCC(F)F)C3)cc2)c2ccc(C(=O)O)cc2CCC1 [Compound 20]	85

The next lines start with the values.

% Degradation At 0.3 μM [%]	Structure (SMILES)
89	O=C(O)c1ccc2c(c1)CCCC(c1ccccc1C(F)(F)F)=C2c1ccc(/C=C2/CCN(CCCF)C2)cc1 [Compound 22, (Z)-9-(4-((1-(3-fluoropropyl)pyrrolidin-3-ylidene)methyl)phenyl)-8-(2-(trifluoromethyl)phenyl)-6,7-dihydro-5H-benzo[7]annulene-3-carboxylic acid]
94	Cc1cc(F)cc(C)c1C1=C(c2ccc(/C=C3/CCN(CCCF)C3)cc2)c2ccc(C(=O)O)cc2CCC1 [Compound 21, (Z)-8-(4-fluoro-2,6-dimethylphenyl)-9-(4-((1-(3-fluoropropyl)pyrrolidin-3-ylidene)methyl)phenyl)-6,7-dihydro-5H-benzo[7]annulene-3-carboxylic acid]
93	O=C(O)c1ccc2c(c1)CCCC(c1cccc(Cl)c1)=C2c1ccc(/C=C2/CCN(CCCF)C2)cc1 [Compound 27, (Z)-8-(3-chlorophenyl)-9-(4-((1-(3-fluoropropyl)pyrrolidin-3-ylidene)methyl)phenyl)-6,7-dihydro-5H-benzo[7]annulene-3-carboxylic acid]
